Key:
[1] = tested on: undifferentiated RAW264 cells; test: Cell-death inducing activity on undifferentiated RAW264 cells, MTT method; type: cell-based, mouse; settings: for CC50: Mus musculus, RAW264.7, 24 hours incubation, MTT, read-out: ED50 level of cell-death inducing activity to undifferentiated RAW264 cells, MTT; for growth inhibitory action on the osteoclast precursor cells RAW264: even at a comparatively high concentration
Experimental: The cell-death inducing activities to the undifferentiated RAW264 cells were investigated by the MTT method (J. Immunol. Methods, Vol. 65, pp 55-63 (1983). The RAW 264 cells were plated on a 96-well plate at a density of 40,000 cells/100 μl and then incubated for 24 hours. After the 24-hour incubation, 50 μl of a culture medium containing a three-fold concentration of the drug was added and then incubated for 24 hours to investigate the cell-death inducing activity. Two hours before the measurement of the cell-death inducing activity, 15 μl of 0.5% MTT-PBS (phosphate buffer saline) was added and incubated. After that, the residue from which the culture solution was removed was dissolved in 100 μl of DMSO (dimethyl sulfoxide) and the absorbance at 570 nm (a reference wave length of 630 nm) was measured, followed by calculating the ED50 level of the cell-death inducing activity.

[2] = tested on: bone resorption due to parathyroid hormone (PTH); test: Serum calcium in TPTX rats with hypercalcemia by continuous PTH infusion; type: in vivo, SD rats; settings: for increase in the level of serum calcium due to PTH: 80 mg/kg, TPTX SD rats, administered 12 hours after start of PTH, followed 24 hours; for duration of inhibitory action on bone resorption: comparison of calcitonin with reveromycin A derivatives
Experimental: The bone resorption inhibitory effects of the reveromycin A derivatives were examined by measuring the level of serum calcium released in the blood by the action of bone resorption. SD rats were subjected to an operation of extracting the thyroid glands and the parathyroid glands (TPTX). Next day, a decrease in serum calcium was confirmed and then the continuous infusion of the parathyroid hormone (PTH) was carried out, thereby creating rats each having hypercalcemia by accelerating the bone resorption.
At 12 hours from the initiation of PTH injection, the reveromycin A derivatives ([…]) or a sodium salt thereof ([…]) were administered and the level of serum calcium was then measured in time-course for 24 hours.

[3] = tested on: mature osteoclasts; test: Cell-death (apoptosis) inducing activity on mature osteoclasts, number of TRAP-stained multinuclear cells; type: cell-based, mouse; settings: for EC50: Mus musculus, Osteoclast, RAW264-derived mature osteoclasts, 24 hours incubation, TRAP staining, read-out: ED50 level of cell-death inducing activity to mature osteoclasts, Number of cells; for selective apoptosis inducing effect on the mature osteoclasts: in words
Experimental: Using 29 different reveromycin A derivatives synthesized as described above, the cell-death inducing activities on the mature osteoclasts and undifferentiated macrophage-like cells derived from a mouse (RAW264 cells) were examined, respectively. The RAW264 cells, a mouse-macrophage cell line, were suspended in a 10% FBS-αMEM (manufactured by Gibco BRL Co., Ltd.) and then 12,000 cells/100 μl were inoculated in a 96-well plate. After 1-hour incubation, 100 μl of a culture medium containing RANKL ([…]) and PD98059 (40 μM) were added (final concentration: RANKL […] and PD98059 20 μM) and then incubated for 4 days to allow the differentiation of the cells to mature osteoclasts (J. Biol. Chem. Vol. 277, pp. 47366-47372 (2002)). Furthermore, on the second day of the culture, the half of the culture medium was replaced with new one. From each well of the plate where the cells were differentiated to the mature osteoclasts, 100 μl/well of the culture medium was removed. […] The apoptosis inducing activity was confirmed by the observation of agglutination of nuclei stained with 10 μM Hoechst 33258 for 10-minututes.

[4] = tested on: anterior limb long bone, bone resorption induced by PTH, IL-1 or vitamin D3; test: Inhibition of 45Ca liberation (bone resorption activity) from cultured fetal long bone; type: cell-based, rat; settings: 72 hours culture; for inhibition of bone resorption induced by the PTH: 10^−8M, 10^−7M and 10^−6M, PTH 10^−8M; for inhibition of bone resorption due to vitamin D3 or IL-1: IL-1 0.3 ng/ml, vitamin D3 10^−8M
Experimental: The effects of the reveromycin A derivatives on the facilitation of the bone resorption due to the parathyroid hormone (PTH) were measured.
A19-day pregnant rat was subjected to the hypodermic injection of [^45Ca]CaCl2 to label a fetal bone. After 24 hours, the anterior limb long bone was extracted. For an anterior limb long bone, a Dulbecco-modified Eagle medium (DMEM) containing 15% heat-inactivated horse serum and 100 U/ml penicillin was used as a culture medium and then incubated for 72 hours together with a bone resorption factor (PTH 10^−8M, IL-1 0.3 ng/ml, vitamin D3 10^−8M) and the reveromycin A derivatives. After incubation, ^45Ca radioactivities in a solution into which calcium of the bone was eluted by 0.1 N HCl and in the culture solution were measured using a liquid scintillation counter. The ratio of the amount of calcium released into the culture solution to the total amount of calcium (bone resorption activity (%)) was used as an indicator and the effects of the reveromycin A derivatives on the facilitation of the bone resorption due to the PTH was investigated. • Bone resorption activity (%)=100×Amount of ^45Ca released into culture solution/(Amount of ^45Ca released into culture solution+Amount of ^45Ca left in bone)

SMILES: CCCC[C@@]1(OC(=O)CCC(=O)O)CC[C@]2(CC[C@H](C)[C@@H](C/C=C(C)/C=C/[C@H](OC(C)=O)[C@@H](C)/C=C/C(=O)O)O2)O[C@H]1/C=C/C(C)=C/C(=O)O [Compound 27, C5-acetate]
- CC50 [1]: 49 µM
- growth inhibitory action on the osteoclast precursor cells RAW264 [1]: do not show any growth inhibitory action
- increase in the level of serum calcium due to PTH [2]: significant suppression
- duration of inhibitory action on bone resorption [2]: prolonged inhibitory action on bone resorption
- EC50 [3]: 1.3 µM
- selective apoptosis inducing effect on the mature osteoclasts [3]: showed a selective apoptosis inducing effect
- inhibition of bone resorption induced by the PTH [4]: inhibited the bone resorption induced by the PTH at 10^−8M, 10^−7M, and 10^−6M, in a concentration-dependent manner
- inhibition of bone resorption due to vitamin D3 or IL-1 [4]: could be also inhibited

SMILES: CCCC[C@@]1(OC(=O)CCC(=O)O)CC[C@]2(CC[C@H](C)[C@@H](C/C=C(C)/C=C/[C@H](O[Si](C)(C)C(C)(C)C)[C@@H](C)/C=C/C(=O)O)O2)O[C@H]1/C=C/C(C)=C/C(=O)O [Compound 2, C5-silylether]
- CC50 [1]: 89 µM
- growth inhibitory action on the osteoclast precursor cells RAW264 [1]: do not show any growth inhibitory action
- increase in the level of serum calcium due to PTH [2]: significant suppression
- duration of inhibitory action on bone resorption [2]: prolonged inhibitory action on bone resorption
- EC50 [3]: 6.6 µM
- selective apoptosis inducing effect on the mature osteoclasts [3]: showed a selective apoptosis inducing effect
- inhibition of bone resorption induced by the PTH [4]: inhibited the bone resorption induced by the PTH at 10^−8M, 10^−7M, and 10^−6M, in a concentration-dependent manner
- inhibition of bone resorption due to vitamin D3 or IL-1 [4]: could be also inhibited
